target: Muscarinic acetylcholine receptor; test: Ability to inhibit binding of [3H]QNB to Muscarinic acetylcholine receptor in cultured N4TG1 neuroblastoma cells at 1e-8 to 1e-3 M

**Q.** Which “I 50” value does the source give for CC(C)CSC[C@H]1OC(n2cnc3c(N)ncnc32)[C@H](O)[C@@H]1O (some centres undefined) here?
**A.** 1500 µM

**Q.** Which “I 50” value does the source give for CC(C)CSC[C@H]1OC(n2cnc3c(N)ccnc32)[C@H](O)[C@@H]1O (some centres undefined) here?
**A.** 52 µM

**Q.** With CC(C)CSC[C@H]1OC(n2cnc3c(N)nccc32)[C@H](O)[C@@H]1O (some centres undefined) as the compound, how does the “I 50” value read?
**A.** 39 µM

**Q.** With CC(C)CSCC1CC(n2cnc3c(N)nccc32)C(O)C1O (centres undefined) as the compound, how does the “I 50” value read?
**A.** 210 µM

— ChEMBL document CHEMBL1122922, “Inhibition of muscarinic receptor binding and acetylcholine-induced contraction of guinea pig ileum by analogues of 5'-(isobutylthio)adenosine” (J Med Chem, 1985)
